The source of these data is patent US20080213363A1, “Methods and compositions for delivering 5-HT3 antagonists across the oral mucosa” (priority 2003, published 2008).

As usually defined, the Papp is a coefficient for how fast a substance crosses the barrier.

This series is classed as in vitro ADME. To be noted: PAMPA. An excerpt:
Topics Med. Chem. 2001, 1, 277-351.

Each structure is given as a SMILES string. Like-named read-outs stand apart in the source and are kept apart here.

Consider `Cc1nccn1CC1CCc2c(c3ccccc3n2C)C1=O.Cl` (stereo not drawn) [Ondansetron HCl, ondansetron HCl], for which the Papp runs as follows: (pH 5.4) 0.32 ×10⁻⁶ cm/s; (pH 7.4) 1.3 ×10⁻⁶ cm/s; (pH 8.5) 3.25 ×10⁻⁶ cm/s.
